Columns and labels:
Experiment in all cases: cells
COLO-800 = assay type: functional, cell-based, Homo sapiens; conditions: Homo sapiens, COLO-800;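 note: growth inhibition of COLO-800 cells, read out with a cell viability assay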
Description: SANGER: Inhibition of human COLO-800 cell growth in a cell viability assay.

D-247MG = assay type: functional, cell-based, Homo sapiens; conditions: Homo sapiens, D-247MG
Description: SANGER: Inhibition of human D-247MG cell growth in a cell viability assay.

D283 Med = assay type: functional, cell-based, Homo sapiens; conditions: Homo sapiens, D283 Med
Description: SANGER: Inhibition of human D-283MED cell growth in a cell viability assay.

DJM-1 = assay type: functional, cell-based, Homo sapiens; conditions: Homo sapiens, DJM-1;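 note: growth inhibition of human DJM-1 cells, read out by a cell viability assay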
Description: SANGER: Inhibition of human DJM-1 cell growth in a cell viability assay.

DK-MG = assay type: functional, cell-based, Homo sapiens; conditions: Homo sapiens, DK-MG;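 note: growth inhibition of DK-MG cells, read out with a cell viability assay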
Description: SANGER: Inhibition of human DK-MG cell growth in a cell viability assay.

Daoy = assay type: functional, cell-based, Homo sapiens; conditions: Homo sapiens, Daoy;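 note: daoy cell growth inhibition, read out as cell viability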
Description: SANGER: Inhibition of human Daoy cell growth in a cell viability assay.

EC-GI-10 = assay type: functional, cell-based, Homo sapiens; conditions: Homo sapiens, EC-GI-10
Description: SANGER: Inhibition of human EC-GI-10 cell growth in a cell viability assay.

EFM-19 = assay type: functional, cell-based, Homo sapiens; conditions: Homo sapiens, EFM-19;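 note: growth inhibition of human EFM-19 cells, measured in a cell viability assay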
Description: SANGER: Inhibition of human EFM-19 cell growth in a cell viability assay.

ES8 = assay type: functional, cell-based, Homo sapiens; conditions: Homo sapiens, ES8;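 note: growth inhibition of human ES8 cells, read out with a cell viability assay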
Description: SANGER: Inhibition of human ES8 cell growth in a cell viability assay.

EW-18 = assay type: functional, cell-based; conditions: Homo sapiens;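 note: growth inhibition of EW-18 cells, read out by a cell viability assay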
Description: SANGER: Inhibition of human EW-18 cell growth in a cell viability assay.

HO-1-N-1 = assay type: functional, cell-based, Homo sapiens; conditions: Homo sapiens, HO-1-N-1;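 note: growth inhibition of human HO-1-N-1 cells, read out with a cell viability assay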
Description: SANGER: Inhibition of human HO-1-N-1 cell growth in a cell viability assay.

HSC-3 = assay type: functional, cell-based, Homo sapiens; conditions: Homo sapiens, HSC-3
Description: SANGER: Inhibition of human HSC-3 cell growth in a cell viability assay.

HuCCT-1 = assay type: functional, cell-based, Homo sapiens, HuCCT1; conditions: Homo sapiens, HuCCT-1;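 note: growth inhibition of HuCCT-1 cells, read out by a cell viability assay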
Description: SANGER: Inhibition of human HuCCT1 cell growth in a cell viability assay.

J-RT3-T3-5 = assay type: functional, cell-based; conditions: Homo sapiens;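 note: cell viability assay measuring growth inhibition of human J-RT3-T3-5 cells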
Description: SANGER: Inhibition of human J-RT3-T3-5 cell growth in a cell viability assay.

KM12 = assay type: functional, cell-based, Homo sapiens; conditions: Homo sapiens, KM12;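 note: KM12 cell growth inhibition, read out with a cell viability assay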
Description: SANGER: Inhibition of human KM12 cell growth in a cell viability assay.

KP-4 = assay type: functional, cell-based, Homo sapiens; conditions: Homo sapiens, KP-4;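 note: human KP-4 cells, with growth inhibition read out through a cell viability assay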
Description: SANGER: Inhibition of human KP-4 cell growth in a cell viability assay.

KS-1 = assay type: functional, cell-based, Homo sapiens; conditions: Homo sapiens, KS-1;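 note: growth inhibition of KS-1 cells, read out with a cell viability assay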
KYSE-520 cell line = assay type: functional, cell-based, Homo sapiens; conditions: Homo sapiens, KYSE-520;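 note: growth inhibition of human KYSE-520 cells, read out with a viability assay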
Description: SANGER: Inhibition of human KYSE-520 cell growth in a cell viability assay.

LB373-MEL-D = assay type: functional, cell-based, Homo sapiens; conditions: Homo sapiens, LB373-MEL-D;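 note: growth inhibition of the cell line, read out in a cell viability assay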
Description: SANGER: Inhibition of human LB373-MEL-D cell growth in a cell viability assay.

LCLC-97TM1 = assay type: functional, cell-based, Homo sapiens; conditions: Homo sapiens, LCLC-97TM1;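 note: cell viability assay measuring growth inhibition of human LCLC-97TM1 cells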
Description: SANGER: Inhibition of human LCLC-97TM1 cell growth in a cell viability assay.

LNCaP-Clone-FGC = assay type: functional, cell-based, Homo sapiens; conditions: Homo sapiens, LNCaP-Clone-FGC
Description: SANGER: Inhibition of human LNCaP-Clone-FGC cell growth in a cell viability assay.

MCF7 = assay type: functional, cell-based, Homo sapiens; conditions: Homo sapiens, MCF7;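 note: growth inhibition of human MCF7 cells, read out with a cell viability assay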
Description: SANGER: Inhibition of human MCF7 cell growth in a cell viability assay.

MEG-01 = assay type: functional, cell-based; conditions: Homo sapiens;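 note: growth inhibition of MEG-01 cells, read out by a cell viability assay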
Description: SANGER: Inhibition of human MEG-01 cell growth in a cell viability assay.

MIA PaCa-2 = assay type: functional, cell-based, Homo sapiens; conditions: Homo sapiens, MIA PaCa-2;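 note: growth inhibition of MIA PaCa-2 cells, read out with a cell viability assay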
Description: SANGER: Inhibition of human MIA-PaCa-2 cell growth in a cell viability assay.

MKN-28 = assay type: functional, cell-based, Homo sapiens; conditions: Homo sapiens, MKN-28;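 note: cell viability assay read-out, IC50 reflects suppression of growth of human MKN-28 cells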
MKN-45 = assay type: functional, cell-based, Homo sapiens; conditions: Homo sapiens, MKN-45;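 note: growth inhibition of human MKN-45 cells, measured with a cell viability assay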
MV4-11 = assay type: functional, cell-based, MV-4-11; conditions: Homo sapiens;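 note: cell viability readout measuring growth inhibition of human MV-4-11 cells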
Description: SANGER: Inhibition of human MV-4-11 cell growth in a cell viability assay.

NB7 = assay type: functional, cell-based; conditions: Homo sapiens;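 note: growth inhibition of NB7 cells, read out with a cell viability assay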
Description: SANGER: Inhibition of human NB7 cell growth in a cell viability assay.

NCI-H2342 = assay type: functional, cell-based; conditions: Homo sapiens;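 note: growth inhibition of the cancer cell line, determined with a cell viability assay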
Description: SANGER: Inhibition of human NCI-H2342 cell growth in a cell viability assay.

NCI-H727 = assay type: functional, cell-based, Homo sapiens; conditions: Homo sapiens, NCI-H727;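 note: growth inhibition of human NCI-H727 cells, read out with a cell viability assay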
Description: SANGER: Inhibition of human NCI-H727 cell growth in a cell viability assay.

NCI-H747 = assay type: functional, cell-based; conditions: Homo sapiens;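 note: growth inhibition of human NCI-H747 cells, read out by a cell viability assay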
NEC8 = assay type: functional, cell-based, Homo sapiens; conditions: Homo sapiens, NEC8;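 note: growth inhibition of human NEC8 cells, read out by a cell viability assay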
Description: SANGER: Inhibition of human NEC8 cell growth in a cell viability assay.

NY = assay type: functional, cell-based, Homo sapiens; conditions: Homo sapiens, NY
Description: SANGER: Inhibition of human NY cell growth in a cell viability assay.

OE19 = assay type: functional, cell-based, Homo sapiens; conditions: Homo sapiens, OE19;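 note: growth inhibition of OE19 cells, measured through a cell viability read-out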
Description: SANGER: Inhibition of human OE19 cell growth in a cell viability assay.

PANC-03-27 = assay type: functional, cell-based, Homo sapiens; conditions: Homo sapiens, PANC-03-27
Description: SANGER: Inhibition of human PANC-03-27 cell growth in a cell viability assay.

PSN1 = assay type: functional, cell-based, Homo sapiens; conditions: Homo sapiens, PSN1;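 note: suppression of growth of human PSN1 cells, read out by a cell viability assay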
Description: SANGER: Inhibition of human PSN1 cell growth in a cell viability assay.

SCC-25 = assay type: functional, cell-based, Homo sapiens; conditions: Homo sapiens, SCC-25;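 note: growth inhibition of SCC-25 cells, measured with a cell viability assay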
SK-N-DZ = assay type: functional, cell-based, Homo sapiens; conditions: Homo sapiens, SK-N-DZ;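 note: growth inhibition of the cancer cell line, read out through a viability assay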
Description: SANGER: Inhibition of human SK-N-DZ cell growth in a cell viability assay.

SW1783 = assay type: functional, cell-based; conditions: Homo sapiens;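 note: cell growth inhibition measured with a viability assay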
Description: SANGER: Inhibition of human SW1783 cell growth in a cell viability assay.

SW780 = assay type: functional, cell-based, Homo sapiens; conditions: Homo sapiens, SW780;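 note: growth inhibition of the cells, read out with a cell viability assay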
SW982 = assay type: functional, cell-based; conditions: Homo sapiens;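 note: growth inhibition of SW982 cells, read out with a cell viability assay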
Description: SANGER: Inhibition of human SW982 cell growth in a cell viability assay.

T84 = assay type: functional, cell-based, Homo sapiens; conditions: Homo sapiens, T84;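 note: growth inhibition measured with a cell viability readout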
Description: SANGER: Inhibition of human T84 cell growth in a cell viability assay.

697 = assay type: functional, cell-based; conditions: Homo sapiens
Description: SANGER: Inhibition of human 697 cell growth in a cell viability assay.

786-0 = assay type: functional, cell-based, Homo sapiens; conditions: Homo sapiens
Description: SANGER: Inhibition of human 786-0 cell growth in a cell viability assay.

A673 = assay type: functional, cell-based, Homo sapiens; conditions: Homo sapiens, A673;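 note: growth inhibition of human A673 cells, read out through a cell viability assay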
Description: SANGER: Inhibition of human A673 cell growth in a cell viability assay.

BB30-HNC = assay type: functional, cell-based, Homo sapiens; conditions: Homo sapiens, BB30-HNC;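 note: growth inhibition of the cultured cell line, read out by a cell viability assay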
Description: SANGER: Inhibition of human BB30-HNC cell growth in a cell viability assay.

BB49-HNC = assay type: functional, cell-based, Homo sapiens; conditions: Homo sapiens, BB49-HNC;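 note: cell viability assay read-out, reported as inhibition of BB49-HNC cell growth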
Description: SANGER: Inhibition of human BB49-HNC cell growth in a cell viability assay.

BT-20 = assay type: functional, cell-based, Homo sapiens; conditions: Homo sapiens, BT-20;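 note: cell viability assay measuring suppression of growth in human BT-20 cells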
Description: SANGER: Inhibition of human BT-20 cell growth in a cell viability assay.

TE-12 = assay type: functional, cell-based; conditions: Homo sapiens;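 note: growth inhibition of TE-12 cells, read out by a cell viability assay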
Description: SANGER: Inhibition of human TE-12 cell growth in a cell viability assay.

U-266 = assay type: functional, cell-based; conditions: Homo sapiens
Description: SANGER: Inhibition of human U-266 cell growth in a cell viability assay.

UMC-11 = assay type: functional, cell-based, Homo sapiens; conditions: Homo sapiens, UMC-11;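 note: growth inhibition of UMC-11 cells, read out with a cell viability assay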
Description: SANGER: Inhibition of human UMC-11 cell growth in a cell viability assay.

YAPC = assay type: functional, cell-based, Homo sapiens; conditions: Homo sapiens, YAPC;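 note: growth inhibition of YAPC cells, measured with a cell viability assay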
Description: SANGER: Inhibition of human YAPC cell growth in a cell viability assay.

O=C(NOCC1CC1)c1ccc(F)c(F)c1Nc1ccc(I)cc1Cl [CI-1040]
IC50 (COLO-800): > 10000 nM
IC50 (D-247MG): > 10000 nM
IC50 (D283 Med): > 10000 nM
IC50 (DJM-1): > 10000 nM
IC50 (DK-MG): 9210 nM
IC50 (Daoy): > 10000 nM
IC50 (EC-GI-10): > 10000 nM
IC50 (EFM-19): > 10000 nM
IC50 (ES8): > 10000 nM
IC50 (EW-18): > 10000 nM
IC50 (HO-1-N-1): 1520 nM
IC50 (HSC-3): 3230 nM
IC50 (HuCCT-1): 7010 nM
IC50 (J-RT3-T3-5): > 10000 nM
IC50 (KM12): 241 nM
IC50 (KP-4; read-out: IC50): > 10000 nM
IC50 (KS-1): > 10000 nM
IC50 (KYSE-520 cell line): > 10000 nM
IC50 (LB373-MEL-D): > 10000 nM
IC50 (LCLC-97TM1): 1920 nM
IC50 (LNCaP-Clone-FGC): > 10000 nM
IC50 (MCF7): > 10000 nM
IC50 (MEG-01): 9250 nM
IC50 (MIA PaCa-2): 3010 nM
IC50 (MKN-28): > 10000 nM
IC50 (MKN-45): 9450 nM
IC50 (MV4-11): 6230 nM
IC50 (NB7): 2340 nM
IC50 (NCI-H2342): > 10000 nM
IC50 (NCI-H727): 2920 nM
IC50 (NCI-H747): 4690 nM
IC50 (NEC8): > 10000 nM
IC50 (NY): > 10000 nM
IC50 (OE19): > 10000 nM
IC50 (PANC-03-27): 3350 nM
IC50 (PSN1): 962 nM
IC50 (SCC-25): 7710 nM
IC50 (SK-N-DZ): > 10000 nM
IC50 (SW1783): > 10000 nM
IC50 (SW780): 3140 nM
IC50 (SW982): > 10000 nM
IC50 (T84): > 10000 nM
IC50 697: 3700 nM
IC50 (786-0): 3270 nM
IC50 (A673): 8630 nM
IC50 (BB30-HNC): > 10000 nM
IC50 (BB49-HNC): > 10000 nM
IC50 (BT-20): > 10000 nM
IC50 (TE-12): 9030 nM
IC50 (U-266): 7560 nM
IC50 (UMC-11): > 10000 nM
IC50 (YAPC): > 10000 nM

CN(C)C/C=C/C(=O)Nc1cc2c(Nc3ccc(F)c(Cl)c3)ncnc2cc1O[C@H]1CCOC1 [AFATINIB]
IC50 (COLO-800): > 500 nM
IC50 (D-247MG): > 500 nM
IC50 (D283 Med): > 500 nM
IC50 (DJM-1): > 500 nM
IC50 (DK-MG): > 500 nM
IC50 (Daoy): > 500 nM
IC50 (EC-GI-10): 59.1 nM
IC50 (EFM-19): > 500 nM
IC50 (ES8): > 500 nM
IC50 (EW-18): > 500 nM
IC50 (HO-1-N-1): 279 nM
IC50 (HSC-3): 212 nM
IC50 (HuCCT-1): > 500 nM
IC50 (J-RT3-T3-5): > 500 nM
IC50 (KM12): > 500 nM
IC50 (KP-4; read-out: IC50): > 500 nM
IC50 (KS-1): > 500 nM
IC50 (KYSE-520 cell line): > 500 nM
IC50 (LB373-MEL-D): > 500 nM
IC50 (LCLC-97TM1): > 500 nM
IC50 (LNCaP-Clone-FGC): > 500 nM
IC50 (MCF7): > 500 nM
IC50 (MEG-01): > 500 nM
IC50 (MIA PaCa-2): > 500 nM
IC50 (MKN-28): > 500 nM
IC50 (MKN-45): > 500 nM
IC50 (MV4-11): > 500 nM
IC50 (NB7): > 500 nM
IC50 (NCI-H2342): > 500 nM
IC50 (NCI-H727): > 500 nM
IC50 (NCI-H747): > 500 nM
IC50 (NEC8): > 500 nM
IC50 (NY): > 500 nM
IC50 (OE19): > 500 nM
IC50 (PANC-03-27): > 500 nM
IC50 (PSN1): > 500 nM
IC50 (SCC-25): > 500 nM
IC50 (SK-N-DZ): > 500 nM
IC50 (SW1783): > 500 nM
IC50 (SW780): > 500 nM
IC50 (SW982): > 500 nM
IC50 (T84): > 500 nM
IC50 697: > 500 nM
IC50 (786-0): > 500 nM
IC50 (A673): > 500 nM
IC50 (BB30-HNC): 166 nM
IC50 (BB49-HNC): > 500 nM
IC50 (BT-20): > 500 nM
IC50 (TE-12): > 500 nM
IC50 (U-266): > 500 nM
IC50 (UMC-11): > 500 nM
IC50 (YAPC): > 500 nM

CC(=O)O[C@@]12CO[C@@H]1C[C@H](O)[C@@]1(C)C(=O)[C@H](O)C3=C(C)[C@@H](OC(=O)[C@H](O)[C@@H](NC(=O)OC(C)(C)C)c4ccccc4)C[C@@](O)([C@@H](OC(=O)c4ccccc4)[C@H]21)C3(C)C [DOCETAXEL]
IC50 (COLO-800): 0.388 nM
IC50 (D-247MG): 1.73 nM
IC50 (D283 Med): 6.24 nM
IC50 (DJM-1): > 10 nM
IC50 (DK-MG): 8.6 nM
IC50 (Daoy): 0.7 nM
IC50 (EC-GI-10): 0.592 nM
IC50 (EFM-19): 2.15 nM
IC50 (ES8): 0.26 nM
IC50 (EW-18): > 10 nM
IC50 (HO-1-N-1): 0.281 nM
IC50 (HSC-3): 0.132 nM
IC50 (HuCCT-1): 5.68 nM
IC50 (J-RT3-T3-5): 2.35 nM
IC50 (KM12): 4.08 nM
IC50 (KP-4): 1.56 nM
IC50 (KS-1): 1.44 nM
IC50 (KYSE-520 cell line): 7 nM
IC50 (LB373-MEL-D): > 10 nM
IC50 (LCLC-97TM1): 1.44 nM
IC50 (LNCaP-Clone-FGC): 1.1 nM
IC50 (MCF7): 1.61 nM
IC50 (MEG-01): > 10 nM
IC50 (MIA PaCa-2): 3.24 nM
IC50 (MKN-28): 3.17 nM
IC50 (MKN-45): 4.53 nM
IC50 (MV4-11): 1.74 nM
IC50 (NB7): > 10 nM
IC50 (NCI-H2342): > 10 nM
IC50 (NCI-H727): > 10 nM
IC50 (NCI-H747): > 10 nM
IC50 (NEC8): 0.561 nM
IC50 (NY): > 10 nM
IC50 (OE19): 5.59 nM
IC50 (PANC-03-27): 1.54 nM
IC50 (PSN1): 0.581 nM
IC50 (SCC-25): 0.68 nM
IC50 (SK-N-DZ): 9.83 nM
IC50 (SW1783): 5.7 nM
IC50 (SW780): 0.587 nM
IC50 (SW982): 1.27 nM
IC50 (T84): > 10 nM
IC50 697: 1.72 nM
IC50 (786-0): 7.86 nM
IC50 (A673): 2.35 nM
IC50 (BB30-HNC): 1.05 nM
IC50 (BB49-HNC): 2.12 nM
IC50 (BT-20): 3.76 nM
IC50 (TE-12): > 10 nM
IC50 (U-266): 3.48 nM
IC50 (UMC-11): > 10 nM
IC50 (YAPC): > 10 nM

From ChEMBL document CHEMBL1201861, “Genomics of Drug Sensitity in Cancer screening data, Wellcome Trust Sanger Institute”
